Test results: US11834453B2, “Substituted pyrimido[5,4-d]pyrimidines as HER2 inhibitors” (Array BioPharma Inc., priority 2020, dated 2023)

Columns and labels:
[1] = molecular target: MDR1 (P-gp) (Homo sapiens (Human), UniProt P08183); assay: MDR1 transfected LLC-PK1 permeability/efflux, Assay 6; conditions: pig
Procedure: Both MDR1 transfected LLC-PK1 (Assay 6) and MDR1 transfected MDCKII canine Mdr1 knockout cells (Assay 7) were cultured and plated according to manufacturer's recommendations with the exception that the passage media for the MDR1 transfected LLC-PK1 cell line contained only 2% fetal bovine serum so as to extend passage time out to seven days.
Both positive and negative controls were used to assess functionality of P-gp or BCRP efflux in the assays. Stock solutions for assay controls and the test article were prepared in DMSO for final test concentration of 1 μM. Final organic concentration in the assay was 1%. All dosing solutions contained 10 μM lucifer yellow to monitor MDCKII cell monolayer integrity.
For the apical to basolateral determination (A to B), 75 μL of the test article in transport buffer were added to the apical side of the individual transwells and 250 μL of basolateral media, without compound or lucifer yellow, were added to each well. For the basolateral to apical determination (B to A), 250 μL of test article in transport buffer were added to each well and 75 μL transport buffer, without compound or lucifer yellow, were added to each transwell. All tests were performed in triplicate, and each compound was tested for both apical to basolateral and basolateral to apical transport. The plates were incubated for 2 hours on a Lab-Line Instruments Titer Orbital Shaker (VWR, West Chester, PA) at 50 rpm and 37° C. with 5% CO2. All culture plates were removed from the incubator, 50 μL of media were removed from the apical and basolateral portion of each well, and added to 150 μL of 1 μM labetalol in 2:1 acetonitrile (ACN): H2O, v/v.
The plates were read using a Molecular Devices (Sunnyvale, CA) Gemini Fluorometer to evaluate the lucifer yellow concentrations at excitation/emission wavelengths of 425/535 nm. These values were accepted when found to be below 2% for apical to basolateral and 5% basolateral to apical flux across the MDR1-transfected LLC-PK1 or BCRP-transfected MDCKII cell monolayers. The plates were sealed, and the contents of each well analyzed by LC MS/MS. The compound concentrations were determined from the ratio of the peak areas of the compound to the internal standard (labetalol) in comparison to the dosing solution.
A MDS Sciex API 4000 (Applied Biosystems, Foster City, CA) mass spectrometer was used for detection of the analytes in the ion spray positive mode. Analyte responses were measured by multiple reaction monitoring (“MRM”) of transitions unique to each compound (the protonated precursor ion and selected product ions for each test article and m/z 329 to m/z 162 for labetalol, the internal standard.
The total run time, including re-equilibration, for a single injection was 1.2 minutes. […] The total run time, including re-equilibration, for a single injection was 0.61 minutes.
An efflux ratio is calculated from the mean apical to basolateral (A-B) Papp data and basolateral to apical (B-A) Papp data: Efflux ratio=Papp(B−A)/Papp(A−B)

[2] = molecular target: EGFR (Homo sapiens (Human), UniProt P00533); assay: ErbB enzyme assay (CisBio HTRF KinEASE-TK), Assay 3; assay type: biochemical
How it was run: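 HTRF KinEASE-TK assay: kinase with 250 nM biotinylated TK-substrate and 1 mM ATP in 25 mM HEPES pH 7.4, 10 mM MgCl2, 0.01% Triton X-100, 2% DMSO, 30 min at 22 °C. Quenched with Sa-XL665/TK-Ab-Cryptate, read after 1 h. IC50 from 4-parameter fit of percent of control.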

[3] = molecular target: BCRP (Homo sapiens (Human), UniProt Q9UNQ0); assay: BCRP transfected MDCKII canine Mdr1 knockout permeability/efflux, Assay 9; conditions: dog, Assay 9 Pe Ratio, efflux ratio Papp(B-A)/Papp(A-B), BCRP transfected MDCKII canine Mdr1 knockout
[4] = molecular target: EGFR wild type (EGFR WT) (Homo sapiens (Human), UniProt P00533); assay: Cellular phosphorylation assay, EGF-stimulated EGFR phosphorylation in engineered NIH 3T3 cells, Phospho-EGFR DuoSet IC ELISA, Assay 5; assay type: cell-based
How it was run: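 NIH 3T3 cells expressing EGFR WT (20,000/well, attached overnight) were exposed to serially diluted compound for 1 h at 37 °C, then stimulated with 100 ng/ml rEGF for 10 min. Phospho-EGFR in lysates measured by sandwich ELISA optical density; IC50 from curves.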

[5] = molecular target: ErbB2 insYVMA (HER2-YVMA, SEQ ID NO: 2) (Homo sapiens, UniProt P04626, INS775YVMA/P1170A); assay: biochemical; conditions: ErbB2 insYVMA enzyme assay; read-out: Assay 1 IC50
[6] = molecular target: ErbB2 with Exon 20 YVMA insertion (HER2-YVMA) (Homo sapiens (Human), UniProt P04626, INS775YVMA); assay: Cellular phosphorylation assay, constitutive ErbB2 phosphorylation (Y1196) in engineered NIH 3T3 cells, Assay 4; assay type: cell-based
How it was run: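 Engineered NIH 3T3 cells expressing HER2-YVMA treated with compounds 1 h at 37 °C, then formaldehyde-fixed and methanol-permeabilized. pErbB2 Y1196 detected by in-cell infrared immunofluorescence, normalized to GAPDH. IC50 from the normalized curves.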

[7] = molecular target: ErbB2 WT (Homo sapiens (Human), UniProt P04626); assay: ErbB enzyme assay (CisBio HTRF KinEASE-TK), Assay 2; assay type: biochemical
How it was run: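 ErbB2 phosphorylates 250 nM biotin-TK substrate at 1 mM ATP in 25 mM HEPES pH 7.4, 10 mM MgCl2, 0.01% Triton X-100 and 2% DMSO, for 30 min at 22 °C. Product is detected by HTRF with Sa-XL665 and TK-Ab-Cryptate. Percent of control is set by DMSO-only wells and pre-quenched wells.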

[8] = LLC-PK1, Assay 6 Pe Ratio, efflux ratio Papp(B-A)/Papp(A-B), MDR1 transfected LLC-PK1

Sequence of ErbB2 WT (P04626 23-1255): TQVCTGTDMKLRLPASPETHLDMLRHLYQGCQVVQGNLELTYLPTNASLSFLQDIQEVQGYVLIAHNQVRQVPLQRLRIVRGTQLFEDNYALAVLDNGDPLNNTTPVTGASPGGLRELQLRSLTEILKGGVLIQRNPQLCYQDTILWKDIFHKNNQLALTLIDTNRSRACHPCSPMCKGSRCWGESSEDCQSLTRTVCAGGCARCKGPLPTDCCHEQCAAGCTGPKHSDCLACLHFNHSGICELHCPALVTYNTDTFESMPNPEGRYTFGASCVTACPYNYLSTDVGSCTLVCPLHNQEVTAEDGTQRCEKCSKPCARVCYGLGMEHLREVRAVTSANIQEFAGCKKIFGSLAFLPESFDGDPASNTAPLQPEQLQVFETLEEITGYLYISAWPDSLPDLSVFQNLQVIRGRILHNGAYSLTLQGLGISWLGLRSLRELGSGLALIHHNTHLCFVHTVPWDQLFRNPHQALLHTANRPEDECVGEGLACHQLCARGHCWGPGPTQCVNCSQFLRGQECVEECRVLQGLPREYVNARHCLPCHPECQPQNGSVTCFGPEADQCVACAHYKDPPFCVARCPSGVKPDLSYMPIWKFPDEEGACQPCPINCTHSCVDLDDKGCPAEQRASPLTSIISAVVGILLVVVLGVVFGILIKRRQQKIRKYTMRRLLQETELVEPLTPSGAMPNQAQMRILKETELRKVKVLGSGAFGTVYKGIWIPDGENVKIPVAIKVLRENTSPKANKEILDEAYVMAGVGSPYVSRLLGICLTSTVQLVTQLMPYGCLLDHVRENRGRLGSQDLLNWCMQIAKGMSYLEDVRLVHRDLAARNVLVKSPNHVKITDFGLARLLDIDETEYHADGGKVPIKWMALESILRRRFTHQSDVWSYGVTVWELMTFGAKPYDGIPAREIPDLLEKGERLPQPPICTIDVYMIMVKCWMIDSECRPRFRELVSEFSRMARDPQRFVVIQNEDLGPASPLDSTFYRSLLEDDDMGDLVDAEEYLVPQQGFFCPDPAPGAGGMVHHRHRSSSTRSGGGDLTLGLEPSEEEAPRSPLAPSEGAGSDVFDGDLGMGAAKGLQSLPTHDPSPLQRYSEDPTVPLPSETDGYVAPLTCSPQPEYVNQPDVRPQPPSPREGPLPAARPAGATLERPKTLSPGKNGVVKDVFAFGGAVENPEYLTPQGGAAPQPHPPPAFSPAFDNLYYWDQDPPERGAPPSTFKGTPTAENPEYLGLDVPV
Sequence of ErbB2 insYVMA (HER2-YVMA, SEQ ID NO: 2) (P04626 with tags, fused parts or gaps INS775YVMA/P1170A limits assumed): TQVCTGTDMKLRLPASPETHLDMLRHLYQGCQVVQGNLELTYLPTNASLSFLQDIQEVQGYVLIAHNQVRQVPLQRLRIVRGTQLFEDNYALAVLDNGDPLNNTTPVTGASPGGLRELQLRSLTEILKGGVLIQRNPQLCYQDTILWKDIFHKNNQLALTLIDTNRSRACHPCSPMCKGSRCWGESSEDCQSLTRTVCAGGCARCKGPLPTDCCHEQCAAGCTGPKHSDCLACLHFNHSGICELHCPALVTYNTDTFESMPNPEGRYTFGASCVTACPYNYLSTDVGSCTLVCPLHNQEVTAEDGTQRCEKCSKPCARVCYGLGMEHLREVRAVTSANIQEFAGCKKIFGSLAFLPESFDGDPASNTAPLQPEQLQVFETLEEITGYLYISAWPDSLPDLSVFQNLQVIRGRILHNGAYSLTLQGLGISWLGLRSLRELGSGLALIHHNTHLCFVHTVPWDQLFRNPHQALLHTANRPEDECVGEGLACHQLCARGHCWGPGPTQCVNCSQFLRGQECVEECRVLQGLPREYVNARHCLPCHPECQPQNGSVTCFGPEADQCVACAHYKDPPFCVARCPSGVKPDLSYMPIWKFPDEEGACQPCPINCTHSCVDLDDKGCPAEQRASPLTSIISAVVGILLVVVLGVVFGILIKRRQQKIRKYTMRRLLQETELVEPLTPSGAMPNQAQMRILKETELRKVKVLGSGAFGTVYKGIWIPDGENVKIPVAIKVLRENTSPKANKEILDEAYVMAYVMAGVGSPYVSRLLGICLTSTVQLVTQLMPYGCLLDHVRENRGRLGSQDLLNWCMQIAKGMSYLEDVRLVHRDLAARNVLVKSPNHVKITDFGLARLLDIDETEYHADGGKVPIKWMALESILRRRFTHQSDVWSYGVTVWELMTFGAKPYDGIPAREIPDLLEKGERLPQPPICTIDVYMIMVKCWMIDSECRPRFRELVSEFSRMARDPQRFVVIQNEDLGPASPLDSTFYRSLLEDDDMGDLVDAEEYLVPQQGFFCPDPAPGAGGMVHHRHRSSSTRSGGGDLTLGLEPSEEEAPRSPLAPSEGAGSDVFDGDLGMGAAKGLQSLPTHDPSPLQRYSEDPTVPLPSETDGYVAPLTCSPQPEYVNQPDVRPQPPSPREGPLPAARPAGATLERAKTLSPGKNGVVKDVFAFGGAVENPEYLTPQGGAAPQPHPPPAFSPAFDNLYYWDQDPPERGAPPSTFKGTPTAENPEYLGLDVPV
Sequence of BCRP (Q9UNQ0 whole entry): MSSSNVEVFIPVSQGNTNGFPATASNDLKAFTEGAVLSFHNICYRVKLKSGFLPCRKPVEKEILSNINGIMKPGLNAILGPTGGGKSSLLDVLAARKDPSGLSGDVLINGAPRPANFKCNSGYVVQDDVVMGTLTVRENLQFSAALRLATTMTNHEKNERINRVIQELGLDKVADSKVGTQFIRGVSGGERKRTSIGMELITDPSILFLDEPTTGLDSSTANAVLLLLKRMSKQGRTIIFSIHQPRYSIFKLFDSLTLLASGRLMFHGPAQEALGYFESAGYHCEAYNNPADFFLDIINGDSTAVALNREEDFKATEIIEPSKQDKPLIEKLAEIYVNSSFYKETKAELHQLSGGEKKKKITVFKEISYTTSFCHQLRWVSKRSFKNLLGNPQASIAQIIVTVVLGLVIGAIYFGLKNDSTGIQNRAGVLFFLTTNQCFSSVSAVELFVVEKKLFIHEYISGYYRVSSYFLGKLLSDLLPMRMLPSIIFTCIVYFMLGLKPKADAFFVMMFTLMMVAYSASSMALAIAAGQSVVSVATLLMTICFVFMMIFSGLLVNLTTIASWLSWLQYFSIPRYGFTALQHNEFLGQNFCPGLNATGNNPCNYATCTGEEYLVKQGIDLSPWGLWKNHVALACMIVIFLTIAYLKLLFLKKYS
Sequence of ErbB2 with Exon 20 YVMA insertion (HER2-YVMA) (P04626 other isoform, or with tags, fused parts or gaps ins YVMA behind 775): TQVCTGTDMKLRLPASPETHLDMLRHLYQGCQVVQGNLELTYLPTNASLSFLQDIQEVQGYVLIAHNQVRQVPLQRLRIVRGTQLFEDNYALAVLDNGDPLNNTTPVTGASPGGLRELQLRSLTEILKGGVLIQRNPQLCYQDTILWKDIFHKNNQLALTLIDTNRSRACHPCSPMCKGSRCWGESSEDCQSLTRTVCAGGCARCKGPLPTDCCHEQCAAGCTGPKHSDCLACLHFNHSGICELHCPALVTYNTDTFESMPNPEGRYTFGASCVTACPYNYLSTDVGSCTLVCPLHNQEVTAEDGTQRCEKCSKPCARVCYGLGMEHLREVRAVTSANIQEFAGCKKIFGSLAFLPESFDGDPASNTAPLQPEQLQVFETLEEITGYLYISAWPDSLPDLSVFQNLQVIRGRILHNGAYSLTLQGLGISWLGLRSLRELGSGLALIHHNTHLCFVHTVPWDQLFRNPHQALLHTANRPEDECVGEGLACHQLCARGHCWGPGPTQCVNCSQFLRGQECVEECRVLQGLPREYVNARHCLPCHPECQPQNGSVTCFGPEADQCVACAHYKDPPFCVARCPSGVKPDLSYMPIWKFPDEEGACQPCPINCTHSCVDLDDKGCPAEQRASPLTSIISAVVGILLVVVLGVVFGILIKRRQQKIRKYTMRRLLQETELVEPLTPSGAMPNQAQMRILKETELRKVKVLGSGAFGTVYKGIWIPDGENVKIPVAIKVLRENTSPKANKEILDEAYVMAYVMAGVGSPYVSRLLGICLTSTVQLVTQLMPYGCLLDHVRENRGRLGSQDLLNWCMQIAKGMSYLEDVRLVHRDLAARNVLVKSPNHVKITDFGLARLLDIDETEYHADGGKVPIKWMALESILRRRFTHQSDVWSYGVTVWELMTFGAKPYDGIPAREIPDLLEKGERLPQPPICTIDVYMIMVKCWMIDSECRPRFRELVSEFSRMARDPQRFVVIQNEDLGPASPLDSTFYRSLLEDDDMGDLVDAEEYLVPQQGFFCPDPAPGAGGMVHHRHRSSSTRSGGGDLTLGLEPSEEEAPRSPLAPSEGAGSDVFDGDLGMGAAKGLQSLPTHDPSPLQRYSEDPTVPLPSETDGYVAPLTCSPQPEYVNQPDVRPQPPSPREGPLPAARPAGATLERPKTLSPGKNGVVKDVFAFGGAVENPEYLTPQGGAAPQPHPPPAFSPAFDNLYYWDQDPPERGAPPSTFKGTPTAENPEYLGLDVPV

| Compound | efflux ratio at 2 h, 1 μM [1, 8] | IC50 [2] [nM] | efflux ratio at 2 h, 1 μM [3] | IC50 [4] [nM] | IC50 [5] [nM] | IC50 [6] [nM] | IC50 [7] [nM] | efflux ratio at 2 h, 1 μM ([1]; LLC-PK1) |
| --- | --- | --- | --- | --- | --- | --- | --- | --- |
| Cc1cc(Nc2ncnc3cnc(N4CCC4)nc23)ccc1Oc1ccc2c(c1)ncn2C [Example 36, 6-(azetidin-1-yl)-N-(3-methyl-4-((1-methyl-1H-benzo[d]imidazol-5-yl)oxy)phenyl)pyrimido[5,4-d]pyrimidin-4-amine] | 1.2 | 9000 | 0.9 | ≥ 5000 | 26.3 | 41.6 | 64.6 |  |
| Cc1cc(Nc2ncnc3cnc(N4C[C@H]5C[C@@H]4CO5)nc23)ccc1Oc1ccc2c(c1)ncn2C [Example 262] | 1.7 | ≥ 10000 | 2.7 | ≥ 5000 | 22.3 | 44 | 116 |  |
| Cc1ncc(-c2ncc3ncnc(Nc4ccc(Oc5ccc6c(c5)ncn6C)c(C)c4)c3n2)o1 [Example 223] | 1.9 | ≥ 10000 | 3.7 | ≥ 5000 | 91.6 | 12.7 | 101 |  |
| Cc1cc(Nc2ncnc3cnc(N(C)CC(F)F)nc23)ccc1Oc1ccc2c(c1)ncn2C [Example 57, N2-(2,2-difluoroethyl)-N2-methyl-N8-(3-methyl-4-((1-methyl-1H-benzo[d]imidazol-5-yl)oxy)phenyl)pyrimido[5,4-d]pyrimidine-2,8-diamine] | 1.1 | 6630 | 1.4 | ≥ 5000 | 30.2 | 9.4 | 37.7 |  |
| Cc1cc(Nc2ncnc3cnc(N4CCO[C@@H]5C[C@@H]54)nc23)ccc1Oc1ccc2c(c1)ncn2C [Example 199, 6-((1R,6S)-2-oxa-5-azabicyclo[4.1.0]heptan-5-yl)-N-(3-methyl-4-((1-methyl-1H-benzo[d]imidazol-5-yl)oxy)phenyl)pyrimido[5,4-d]pyrimidin-4-amine] | 1.9 | 5680 | 1.4 | ≥ 5000 | 16.1 | 17.9 |  |  |
| Cc1cc(Nc2ncnc3cnc(N4CC5C6CCC(O6)C5C4)nc23)ccc1Oc1ccc2c(c1)ncn2C (stereo not shown) [Example 16, N-(3-methyl-4-((1-methyl-1H-benzo[d]imidazol-5-yl)oxy)phenyl)-6-(octahydro-2H-4,7-epoxyisoindol-2-yl)pyrimido[5,4-d]pyrimidin-4-amine] | 1.2 | ≥ 10000 | 1.8 | ≥ 5000 | 26 | 15.2 |  |  |
| Cc1cc(Nc2ncnc3cnc(N4C[C@@H](C)O[C@@H](C)C4)nc23)ccc1Oc1ccc2c(c1)ncn2C [Example 25, 6-((2S,6R)-2,6-dimethylmorpholino)-N-(3-methyl-4-((1-methyl-1H-benzo[d]imidazol-5-yl)oxy)phenyl)pyrimido[5,4-d]pyrimidin-4-amine] | 1.7 | ≥ 10000 | 1.4 |  | 172 | 53.4 | 329 |  |
| Cc1cc(Nc2ncnc3cnc(N4CCCC4=O)nc23)ccc1Oc1ccc2c(c1)ncn2C [Example 34, 1-(8-((3-methyl-4-((1-methyl-1H-benzo[d]imidazol-5-yl)oxy)phenyl)amino)pyrimido[5,4-d]pyrimidin-2-yl)pyrrolidin-2-one] | 6.3 | ≥ 10000 |  | ≥ 5000 | 124 | 30.5 | 307 |  |
| Cc1cc(Nc2ncnc3cnc(NC45CC(C4)C5)nc23)ccc1Oc1ccc2c(c1)ncn2C [Example 18, N2-(bicyclo[1.1.1]pentan-1-yl)-N8-(3-methyl-4-((1-methyl-1H-benzo[d]imidazol-5-yl)oxy)phenyl)pyrimido[5,4-d]pyrimidine-2,8-diamine] | 2.6 | ≥ 10000 |  | ≥ 5000 | 122 | 47.8 | 167 |  |
| CNc1ncc2ncnc(Nc3ccc(Oc4ccc5scnc5c4)c(C)c3)c2n1 [Example 50, N8-(4-(benzo[d]thiazol-5-yloxy)-3-methylphenyl)-N2-methylpyrimido[5,4-d]pyrimidine-2,8-diamine 2,2,2-trifluoroacetate] | 1.2 | 363 |  | ≥ 5000 | 4.8 | 93.6 | 11.4 |  |
| Cc1cc(Nc2ncnc3cnc(NC4COC4)nc23)ccc1Oc1ccc2c(c1)ncn2C [Example 259] | 8.8 | ≥ 10000 |  | ≥ 5000 | 29.7 | 19.6 | 45.3 |  |
| Cc1cc(Nc2ncnc3cnc(O[C@H]4CCNC[C@H]4F)nc23)ccc1Oc1ccc2c(c1)ncn2C [Example 284] | 95.4 | ≥ 10000 |  | ≥ 5000 | 75.6 | 53.4 | 681 |  |
| Cc1cc(Nc2ncnc3cnc(N4CC5(CC5)CO4)nc23)ccc1Oc1ccc2c(c1)ncn2C [Example 187, N-(3-methyl-4-((1-methyl-1H-benzo[d]imidazol-5-yl)oxy)phenyl)-6-(5-oxa-6-azaspiro[2.4]heptan-6-yl)pyrimido[5,4-d]pyrimidin-4-amine] |  | ≥ 10000 |  | ≥ 5000 | 38.4 | 14.3 | 109 | 2.7 |
| Cc1cc(Nc2ncnc3cnc(NC4=NC(C)(C)CO4)nc23)ccc1Oc1ccc2c(c1)ncn2C [Example 32, N2-(4,4-dimethyl-4,5-dihydrooxazol-2-yl)-N8-(3-methyl-4-((1-methyl-1H-benzo[d]imidazol-5-yl)oxy)phenyl)pyrimido[5,4-d]pyrimidine-2,8-diamine] | 34.5 | ≥ 10000 |  | ≥ 5000 | 34.6 | 13.4 | 43.4 |  |
| Cc1cc(Nc2ncnc3cnc(-c4ncco4)nc23)ccc1Oc1ccc2c(c1)ncn2C [Example 226] | 3.2 | ≥ 10000 |  | ≥ 5000 | 92.7 | 65.4 | 128 |  |
| CC(=O)N1CCN(c2ncc3ncnc(Nc4ccc(Oc5ccc6c(c5)ncn6C)c(C)c4)c3n2)CC1 [Example 24, 1-(4-(8-((3-methyl-4-((1-methyl-1H-benzo[d]imidazol-5-yl)oxy)phenyl)amino)pyrimido[5,4-d]pyrimidin-2-yl)piperazin-1-yl)ethan-1-one] | 30 | ≥ 10000 |  | ≥ 5000 | 18.2 | 7.1 | 31.5 |  |
| CCNc1ncc2ncnc(Nc3ccc(Oc4ccc5c(ccn5C)c4)c(C)c3)c2n1 [Example 269] | 2.4 | 2400 |  | ≥ 5000 | 12.1 | 20.7 | 16.7 |  |
| Cc1cc(Nc2ncnc3cnc(N4CC(CS(C)(=O)=O)C4)nc23)ccc1Oc1ccc2c(c1)ncn2C [Example 232] | 31.3 | 6410 |  | ≥ 5000 | 15.3 | 39.6 | 12.4 |  |
| Cc1cc(Nc2ncnc3cnc(N4CCN(C)[C@H](C)C4)nc23)ccc1Oc1ccc2c(c1)ncn2C [Example 281] | 2.1 | ≥ 10000 |  | ≥ 5000 | 23.8 | 26.6 | 84.2 |  |
| Cc1cc(Nc2ncnc3cnc(N4CCOC5CC54)nc23)ccc1Oc1ccc2c(c1)ncn2C (racemic) [Example 60, 6-(2-oxa-5-azabicyclo[4.1.0]heptan-5-yl)-N-(3-methyl-4-((1-methyl-1H-benzo[d]imidazol-5-yl)oxy)phenyl)pyrimido[5,4-d]pyrimidin-4-amine] | 2.6 | 8860 |  | ≥ 5000 | 19.4 | 8.5 | 27.6 |  |
| Cc1cc(Nc2ncnc3cnc(N4CCCC45COC5)nc23)ccc1Oc1ccc2c(c1)ncn2C [Example 230] | 2.5 | 8560 |  | ≥ 5000 | 25.8 | 15.7 | 29.2 |  |
